Data as given in patent US20260033491A1, “FUNGAL SPORE FORMULATIONS INCLUDING CARRIER FLUIDS” (priority 2018, published 2026).
Marks after values point to notes of the source that are not given here.

Columns and labels:
[1] = system: Purpureocillium lilacinum spores; test: Spore viability (germination rate) of Purpureocillium lilacinum spores dispersed in fluid and stored at 30° C.; assay type: cell-based; settings: P. lilacinum spores in fluid
Method: (§1) 3 g of Purpureocillium lilacinum pure spore powder were transferred into a formulation vessel (IKA Type DT-20 mixing vessel with dispersion tool for Ultra Turrax) using a sterile spoon. 12 mL of fluid were added into the respective formulation vessel and dispersed using ultra turrax tube drive control for 1 min at 3000 rpm; change direction after 30 sec. After this 2.8 mL were transferred in four sample bottles (Wheaton Serum vial, Type I) leaving little headspace and closed tight using crimpneck caps (Macherey—Nagel type N 13). Afterwards all sample bottles were transferred to an incubator set at 30° C. and stored for a given time.
In regular intervals a sample was retrieved from the storage location and analyzed for spore viability. For this purpose, the original samples were thoroughly homogenized. Aliquots of 0.25 g or 250 μL of each sample were transferred into 50 mL falcon tubes. The tubes were filled up to 25 g using a sterile aqueous solution containing 2% Tween 80 and homogenized by vortexing to achieve the first dilution step (1:100 dilution). This dilution was used for further dilution and spotting on agar.
For these samples, an alternative dispersion/dilution method was applied where the oil phase was stripped from the spores first: 0.25 g or 250 μL of sample are weighted into a 2 mL Eppendorf tube, and 0.5 mL of 2% Tween 80 is added, and the mixture is transferred into an Eppendorf centrifuge where it is centrifuged for 1 min at 10.000 rpm. The supernatant (=upper oily phase) is discarded by using a pipette. […] 250 μL or 0.25 g of each sample were transferred into a sterile 50 mL Falcon tube. The tubes were filled up to 25 g using a sterile aqueous solution containing 2% Tween 80 and homogenized by vortexing to achieve the first dilution step (1:100 dilution). This dilution was used for further dilution and spotting on agar.
(§2) For evaluation of spore germination rate prepare a 1:30000 dilution based on the 1:100 dilution achieved by multiple automated dilution (pipetting robot, 96 well plate). Afterwards 12×12 cm agar plates were taken and spotted with 10 times 5 μL of each sample using an automated 12-Channel pipet. Wait until liquid is soaked up by agar and transfer agar plate to an incubator and incubate at 25° C. for 17 hours. Open the plate and place it under the microscope. Randomly chose one area per spot and record the number of germinated and non-germinated spores that are within the designated field. At least 200 spores per sample need to be evaluated. If needed count more than one field per spot.

[2] = system: Penicillium bilaii spores; test: Spore viability (germination rate) of Penicillium bilaii spores dispersed in fluid and stored at 30° C.; assay type: cell-based; settings: Penicillium bilaii spores in fluid; for spore viability [%] 6 w@30° C. (41-43 d) / spore viability [%] 3 m@30° C. (83-85 d): storage at 30° C.
Method: as §1, with “1.5 g” for “3 g”, “of Penicillium bilaii” for “of Purpureocillium lilacinum”, “spoon. 13.5” for “spoon. 12”, “N 13)” for “N 13).”
In regular intervals a sample was retrieved from the storage location and analyzed for spore viability. Therefore the original samples were thoroughly homogenized. Aliquots of 0.25 g or 250 μL of each sample are transferred into 50 mL falcon tubes. The tubes were filled up to 25 g using a sterile aqueous solution containing 2% Tween 80 and homogenized by vortexing to achieve the first dilution step (1:100 dilution). This dilution was used for further dilution and spotting on agar.
Not all samples mixed well or mixed at all in 2% Tween 80. For these samples, an alternative dispersion/dilution method was applied where the oil phase is stripped from the spores first: 0.25 g or 250 μL of sample are weighted into a 2 mL Eppendorf tube, and 0.5 mL of 2% Tween 80 is added, and the mixture is transferred into an Eppendorf centrifuge where it is centrifuged for 1 min at 10.000 rpm. The supernatant (=upper oily phase) is discarded by using a pipette. Afterwards 250 μL of Breakthru S 240 are added and the spores are well dispersed. 250 μL or 0.25 g of each sample are transferred into a sterile 50 mL Falcon tube. The tubes were filled up to 25 g using a sterile aqueous solution containing 2% Tween 80 and homogenized by vortexing to achieve the first dilution step (1:100 dilution). This dilution is used for further dilution and spotting on agar.
as §2, with “1:15000” for “1:30000”, “are” for “were”, “20°” for “25°”

| SMILES | spore viability [%] at day 1 [1] | spore viability [%] after 5-6 w (35-40 d) ([1]; storage at 30° C., 35-40 d) | spore viability [%] after 3 m (87-92 d) ([1]; storage at 30° C., 87-92 d) | spore viability [%] initial (1-2 d) [2] | spore viability [%] 6 w@30° C. (41-43 d) [2] | spore viability [%] 3 m@30° C. (83-85 d) [2] | spore viability [%] taken after 7 m of storage ([1]; storage at 30° C., 7 m) | spore viability [%] after 2 w (12-15 d) ([1]; storage at 30° C., 12-15 d) | spore viability [%] after 1 m (27-28 d) ([1]; storage at 30° C., 27-28 d) | spore viability [%] after 2 m (51-55 d) ([1]; storage at 30° C., 51-55 d) |
| --- | --- | --- | --- | --- | --- | --- | --- | --- | --- | --- |
| CCCCOC(=O)CCCCC(=O)OCCCC [Adimoll DB, di-n-Butyl adipate] | 98.9% | 97.5% | 89.8% | 97.5% | 90.8% | 75.5% | – | – | – | – |
| CC(=O)OCC(COC(C)=O)OC(C)=O [Triacetin, Glycerin triacetate] | 98.3% | – | – | 92.9% | 83.2% | 57.6% | 69.4* % | 97.9% | 96.2% | 90.8% |
